Laboratory results: patent publication US20230066049A1, “PEPTIDES USEFUL IN PRESERVATION AND/OR RESTORATION OF FUNCTIONAL PANCREATIC ISLETS AND IN TREATING DIABETES” (THE NATIONAL INSTITUTE FOR BIOTECHNOLOGY IN THE NEGEV LTD., priority 2020, published 2023)
Like-named read-outs stand apart in the source and are kept apart here.

Experiments:
[1] = tested on: Langerhans islets; test: Glucagon IHC staining of Langerhans islets (islet morphology) in STZ/HFD-32-fed mice; format: in vivo, mouse
Method: (§1) Male C57BL/6 mice were purchased from Envigo (Jerusalem, Israel). In order to generate the diabetes-based steatosis-NASH mouse model, 2-day-old mice were subjected to a single, low dose subcutaneous injection of streptozotocin (STZ) (200 μg/mouse) and then were fed with the HFD-32 high fat diet starting at the end of week 4. The mice manifested steatosis at 6 weeks and NASH at 8 weeks. These mice are designated herein interchangeably as “NAFLD/diabetes mice model” and “STZ/HFD-32-fed mice”. Mice affected with steatosis were treated with R-Tf-D-LP4 (14 mg/kg) from week 6 to week 8, and mice affected with NASH from week 8 to week 10. The R-Tf-D-LP4 peptide at 14 mg/kg (in 100 μl of Hank's balanced salts solution (HBSS) without calcium) was administered intravenously three times a week. Control groups were intravenously injected with 100 μl of 0.8% DMSO in HBSS buffer from week 6 to week 8 for steatosis affected mice and from week 8 to week […] for NASH affected mice. The final blood DMSO concentration was 0.07% in control and peptide-treated mice.
(§2) At the end of the experiment, the mice were sacrificed by CO2 inhalation and the livers and pancreases were removed. Livers were photographed and the lipid content was assessed. […]

[2] = tested on: PDX1; test: PDX1 IF co-staining in pancreas of STZ/HFD-32-fed mice; format: in vivo, mouse
Method: as §1, §2

[3] = tested on: ob/ob mice; settings: diabetic (ob/ob) mice and NAFLD affected mice; Pittala et al., Cells 2020; cited from earlier work
[4] = tested on: STZ/HFD-32-fed mice; settings: 2019, cited from earlier work
[5] = tested on: Ki-67; test: Ki-67 IF staining (proliferation) in pancreas of STZ/HFD-32-fed mice; format: in vivo, mouse; settings: steatosis stage; compared to chow diet-fed and STZ/HFD-32-fed mice
Method: as §1, §2

[6] = tested on: 3T3-L1 adipocytes; test: Oil Red O staining of intracellular lipids in adipocytes; format: cell-based, mouse; settings: 10 μM peptide, 24 h
Method: 3T3-L1 mouse embryo fibroblasts were purchased from the American Type Culture Collection (ATCC Manassas, Va.) and maintained in a humidified atmosphere of 5% CO2, 95% air at 37° C. in Dulbecco's modified Eagle's growth medium (DMEM) with high glucose ([…]), supplemented with 10% fetal calf serum, and 1% penicillin-streptomycin. For R-Tf-D-LP4 peptide treatment, […] cells (6×10^5/ml at 70-80% confluence) were incubated with the R-Tf-D-LP4 peptide in 500 μl serum-free medium for 24 h at 37° C. and 5% CO2. The cells were then stained with Oil red O as described below.
3T3-L1 cells were washed with PBS, fixed with formaldehyde for 15 min, and then subjected to Oil Red O staining for 30 min at room temperature followed by staining with Hematoxylin. Microscope images were collected to visualize the red oil droplets in the cells. Finally, the cells were washed with H2O followed by three washes with 60% isopropanol with gentle rocking. The Oil Red O stain was extracted with 100% isopropanol for 5 min and the absorbance at 492 nm was measured and normalized to the same number of cells counted before stain extraction.

[7] = tested on: ob/ob mice; test: Ob/Ob diabetes mouse model: blood glucose, body weight, Langerhans islets; format: in vivo; settings: 14 mg/kg intravenous three times a week
Method: Six week old male (C57BL/6) Ob/Ob (Jackson Laboratory, Bar Harbor, Me.) mice were treated with R-Tf-D-LP4 (14 mg/Kg) from week 6 to week 13 by intravenous administration of the R-Tf-D-LP4 peptide in 100 μl of Hank's balanced salts solution (HBSS) without calcium three times a week. A control group received 100 μl of 0.8% DMSO in HBSS buffer injected intravenously. The final blood DMSO concentration was 0.07% in both control and peptide-treated mice. Blood glucose levels were measured once a week. At the end of the experiment, the mice were sacrificed, and the pancreas was removed and fixed with formaldehyde, embedded in paraffin, sectioned, and subjected to immunefluorescent (IF). The experimental protocol used in the mouse model was approved by the Institutional Animal Care and Use Committee.
(§3) Immunohistochemistry (IHC) and immunofluorescence (IF) staining was performed on 5 μm-thick formalin-fixed and paraffin-embedded pancreatic tissue sections. Sections were deparaffinized (5 minutes in xylene, 3 times), followed by rehydration with a graded ethanol series (50%, 70%, 95%, 100%). Antigen retrieval was performed by 20 min incubation in preheated 0.01 M citrate buffer, pH 6.0 at 95-98° C. Sections were washed with PBS pH 7.4 containing 0.1% Triton-X100 (PBST), incubated in 10% NGS and 1% BSA for 2 h, followed by overnight incubation at 4° C. with primary antibodies (see Table 1). Sections were then washed with PBST. For IHC staining, endogenous peroxidase activity was blocked by incubating the sections in 3% H2O2 for 15 min. Following washing with PBST, sections were incubated for 2 h with the appropriate secondary HRP-conjugated antibodies. Sections were washed with PBST and peroxidase activity was visualized by incubating with DAB. After rinsing in water, the sections were counter-stained with hematoxylin, dehydrated with a graded ethanol series (50-100%), incubated in xylene, and mounted with mounting medium. Finally, images from the sections were collected using an automatic digital slide scanner (Panoramic
MIDI II, 3DHISTECH) with the same light intensity and exposure time. Non-specific control experiments were carried out using the same protocols but omitting incubation with primary antibodies. For IF staining, sections were incubated for 2 h with the appropriate secondary Alexa Fluor conjugated antibodies. Sections were washed with PBST, counter—stained with DAPI (0.07 μg/ml), washed with PBST, and mounted with mounting media. […]
STZ/HFD-32-fed mice at the end of study before sacrifice. In the case of the ob/ob mice, weekly blood samples were collected from the tail, and blood glucose levels were measured immediately using an Accu-Check Performa blood glucose meter.

[8] = tested on: VDAC1; test: VDAC1 IHC/IF staining of Langerhans islets of STZ/HFD-32-fed mice; format: in vivo, mouse
Method: Male C57BL/6 mice were purchased from Envigo (Jerusalem, Israel). In order to generate the diabetes-based steatosis-NASH mouse model, 2-day-old mice were subjected to a single, low dose subcutaneous injection of streptozotocin (STZ) (200 μg/mouse) and then were fed with the HFD-32 high fat diet starting at the end of week 4. The mice manifested steatosis at 6 weeks and NASH at 8 weeks. These mice are designated herein interchangeably as “NAFLD/diabetes mice model” and “STZ/HFD-32-fed mice”. Mice affected with steatosis were treated with R-Tf-D-LP4 (14 mg/kg) from week 6 to week 8, and mice affected with NASH from week 8 to week 10. The R-Tf-D-LP4 peptide at 14 mg/kg (in 100 μl of Hank's balanced salts solution (HBSS) without calcium) was administered intravenously three times a week. […]
as §2
The expression of VDAC1 was examined in the pancreas of STZ/HFD-32 diet-fed mice, representing NAFLD affected mice on a diabetic background with and without R-Tf-D-LP4 peptide treatment as compared to the levels in islets from mice fed with chow-diet (FIG. 5). Formaldehyde-fixed, paraffin-embedded pancreas sections were analyzed by IHC staining for VDAC1 using anti-VDAC1 specific antibodies. […]

[9] = tested on: Glut-2; test: Glut-2 IF staining of pancreatic sections of STZ/HFD-32-fed mice; format: in vivo, mouse; settings: STZ/HFD-32-fed mice at steatosis
Method: as §1, §2

[10] = tested on: STZ/HFD-32-fed mice; test: NAFLD/diabetes mice model (STZ/HFD-32-fed mice): number and size of Langerhans islets, blood glucose; format: in vivo, mouse; settings: for Average No. of islets per mouse / Total No. of islets: 14 mg/kg i.v. three times a week
Source text: The HFD-32 diet was as described previously (Fujii, M., et al. Med Mol Morphol, 2013. 46(3): p. 141-52; 507.6 kcal/100 g, 56.7% kcal from fat) comprising 5% egg white powder (MM Ingredients, Wimborne, UK), 6.928% lactose (Pharma Grade, Nelson, UK), 15.88% beef fat (contains 80% fat), 5% AIN93G-mineral mixture, 0.002% tertiary butyl hydroquinone and 1.4% AIN93VX-vitamin mix (MP Biomedical, Illkirch, France), 24.5% milk casein (Shaanxi Fuheng Biotechnology, Xi'an, China), 20% safflower oil (high oleic acid content) (Bustan Briut, Galil, Israel), 6.45% sucrose, 0.43% L-cysteine, 5.5% crystalline cellulose (Sigma), 0.36% choline bitartrate and 8.25% maltodextrin (Bulk Powders, Colchester, UK). Control C57BL/6 mice were fed with a standard chow diet (408.4 kcal/100 g, 57% kcal from carbohydrates, 27% kcal from proteins, 16% from fat (V1154-703, S sniff Spezialdaten, Sosset, Germany).
as §1
At the end of the experiment, the mice were sacrificed by CO2 inhalation and the livers and pancreases were removed. Livers were photographed and the lipid content was assessed. For this purpose, part of the liver was frozen in OCT (optimal cutting temperature) compound, embedded, sectioned, and stained with oil red O. The pancreases were fixed with formaldehyde, embedded in paraffin, sectioned, and subjected to immunohistochemical (IHC) or immunefluorescent (IF) staining, as described below.
as §3
MIDI II, 3DHISTECH) with the same light intensity and exposure time. Non-specific control experiments were carried out using the same protocols but omitting incubation with primary antibodies. For IF staining, sections were incubated for 2 h with the appropriate secondary Alexa Fluor conjugated antibodies. […]

[11] = tested on: db/db mice; settings: Zhang et al., 2019; cited from earlier work

D-Lys-D-Trp-D-Thr-D-Trp-D-Lys-D-Asn-D-Ser-D-Asn-D-Gly-D-Ala-D-Thr-D-Trp-D-Ala-D-Leu-D-Asn-D-Val-D-Ala-D-Thr-D-Glu-D-Leu-D-Lys-D-Lys-D-Glu-D-Trp-D-Thr-D-Trp-D-Ser-His-Arg-Pro-Tyr-Ile-Ala-His [R-Tf-D-LP4]
islet morphology (localization of glucagon-producing cells) ([1]; NASH stage): completely restored
islet morphology (localization of glucagon-producing cells) ([1]; steatosis stage): improved to some extent
PDX1 staining level ([2]; co-staining PDX1 and glucagon, over the level in control chow-fed mice): highly increased
PDX1 staining level ([2]; co-staining PDX1 and insulin): showed a higher level of staining for PDX1
blood glucose levels [3]: reduced blood glucose levels
β-oxidation in the liver ([4]; STZ/HFD-32-fed mice, Pittala et al.): accelerated β-oxidation in the liver
liver pathology ([4]; mouse model for NAFLD, WO 2017/037711, Pittala et al.): reverse liver pathology to a normal-like state
increase in number of Ki-67 positive cells in the islet interior [5]: about 8 fold
increase in number of Ki-67 positive cells outside of the islets [5]: ~3 fold
decrease in the amount of lipid (extraction of Oil red O stain) [6]: 90%
blood glucose levels [7]: reduced the levels of blood glucose
insulin production [7]: improved insulin production
number of Langerhans islets ([7]; H&E and anti-insulin staining): increased the number of islets
body weight (weekly average weight) ([7]; followed for 7 weeks): no such effect was observed
VDAC1 staining level in the islets ([8]; IHC, 14 mg/kg): this level decreased
islet morphology and size (IF co-staining VDAC1 and insulin) ([8]; steatosis stage): displayed a normal morphology and large islets
Glut-2 expression in islets [9]: re-expressed
number of islets per mouse, Islet size, 1-50 nm ([10]; NASH): 16
number of islets per mouse, Islet size, 51-100 nm ([10]; NASH): 12
number of islets per mouse, Islet size, 101-150 nm ([10]; NASH): 4
number of islets per mouse, Islet size, 151-300 nm ([10]; NASH): 3
Average No. of islets per mouse ([10]; NASH, week 8 to 10): 35
Total No. of islets ([10]; NASH, week 8 to 10, n = 10): 354 (n = 10)
size and number of Langerhans islets ([10]; STZ/HFD-32-fed mice, steatosis or NASH stage): both the size and the number of Langerhans islets were increased
blood glucose levels ([10]; STZ/HFD-32 mice model): reduced blood glucose levels
insulin content within the islets ([10]; STZ/HFD-32 mice model): increased insulin content within the islets
number of islets per mouse, Islet size, 1-50 nm ([10]; Steatosis): 16
number of islets per mouse, Islet size, 51-100 nm ([10]; Steatosis): 8
number of islets per mouse, Islet size, 101-150 nm ([10]; Steatosis): 2
number of islets per mouse, Islet size, 151-300 nm ([10]; Steatosis): 1
Average No. of islets per mouse ([10]; Steatosis, week 6 to 8): 27
Total No. of islets ([10]; Steatosis, week 6 to 8, n = 17): 451 (n = 17)
further increase of the number of islets over chow diet level ([10]; mice affected with NASH): 30%
number of the islets compared with chow diet-fed mice ([10]; mice with steatosis): to the level observed in mice fed with chow diet

O=C(CC(CO)N1CCN(c2ccc(OC(F)(F)F)cc2)CC1)Nc1ccc(Cl)cc1 (stereo not drawn) [VBIT-4, N-(4-chlorophenyl)-4-hydroxy-3-(4-(4-(trifluoromethoxy)phenyl)piperazin-l-yl) butanamide]
glucose tolerance [11]: maintained normal glucose tolerance
hyperglycemia [11]: prevented hyperglycemia
insulin secretion [11]: stimulated insulin secretion
